In ChEMBL document CHEMBL3621069 (Bioorg Med Chem Lett, 2015):

Columns and labels:
[1] = target: T1, Tyrosine-protein kinase ZAP-70 (Homo sapiens, UniProt P43403); assay: Inhibition of purified full-length human ZAP70 pre-incubated for 30 mins at room temperature before UlighTM-PolyGT peptide substrate addition and measured 1 hr after substrate addition by cell free kinase assay
T1 sequence (P43403 whole entry): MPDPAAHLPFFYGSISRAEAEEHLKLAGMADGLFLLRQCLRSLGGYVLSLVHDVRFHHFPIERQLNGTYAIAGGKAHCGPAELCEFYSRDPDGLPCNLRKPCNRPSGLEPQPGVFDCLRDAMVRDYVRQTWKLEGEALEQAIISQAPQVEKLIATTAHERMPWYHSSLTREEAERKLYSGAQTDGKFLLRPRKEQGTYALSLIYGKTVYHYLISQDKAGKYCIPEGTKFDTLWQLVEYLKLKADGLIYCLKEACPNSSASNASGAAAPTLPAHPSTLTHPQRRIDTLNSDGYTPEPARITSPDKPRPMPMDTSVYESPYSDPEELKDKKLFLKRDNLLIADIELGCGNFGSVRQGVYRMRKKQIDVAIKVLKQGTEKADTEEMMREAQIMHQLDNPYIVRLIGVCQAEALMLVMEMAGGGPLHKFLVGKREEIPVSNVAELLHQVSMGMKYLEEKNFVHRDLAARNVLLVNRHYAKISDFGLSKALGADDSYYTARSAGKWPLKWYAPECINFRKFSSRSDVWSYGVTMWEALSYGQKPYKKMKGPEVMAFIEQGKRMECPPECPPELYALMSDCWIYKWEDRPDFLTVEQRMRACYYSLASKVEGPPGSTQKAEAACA

Aurora kinase B = Aurora kinase B (Homo sapiens, UniProt Q96GD4); assay: Inhibition of Aurora B kinase (unknown origin) pre-incubated for 30 mins at room temperature before substrate addition and measured 1 hr after substrate addition by cell free kinase assay
[2] = Stability in human liver microsomes; format: ADME; conditions: read-out: Stability
[3] = Apparent permeability from apical to basolateral side in human Caco2 cells; format: ADME, cell-based; conditions: Caco-2
[4] = Apparent permeability from basolateral to apical side in human Caco2 cells; format: ADME, cell-based; conditions: Caco-2
[5] = Inhibition of CYP450 (unknown origin); format: ADME, Homo sapiens
Plasma = assay: Unbound fraction in human plasma; format: ADME, cell-free
Salmonella typhimurium [6] = assay: Genotoxicity in Salmonella typhimurium TA98 at 5000 µg/plate in presence of liver S9 fraction by Ames test; format: toxicity, organism-based; conditions: salmonella enterica subsp. enterica serovar typhimurium
Salmonella typhimurium [7] = assay: Genotoxicity in Salmonella typhimurium TA100 at 5000 µg/plate in presence of liver S9 fraction by Ames test; format: toxicity, organism-based; conditions: salmonella enterica subsp. enterica serovar typhimurium
Salmonella typhimurium [8] = assay: Genotoxicity in Salmonella typhimurium TA100 at 5000 µg/plate in absence of liver S9 fraction by Ames test; format: toxicity, organism-based; conditions: salmonella enterica subsp. enterica serovar typhimurium
Salmonella typhimurium [9] = assay: Genotoxicity in Salmonella typhimurium TA1535 at 5000 µg/plate in presence of liver S9 fraction by Ames test; format: toxicity, organism-based; conditions: salmonella enterica subsp. enterica serovar typhimurium
Salmonella typhimurium [10] = assay: Genotoxicity in Salmonella typhimurium TA1535 at 5000 µg/plate in absence of liver S9 fraction by Ames test; format: toxicity, organism-based; conditions: salmonella enterica subsp. enterica serovar typhimurium
Salmonella typhimurium [11] = assay: Genotoxicity in Salmonella typhimurium TA1537 at 5000 µg/plate in presence of liver S9 fraction by Ames test; format: toxicity, organism-based; conditions: salmonella enterica subsp. enterica serovar typhimurium
Escherichia coli [12] = assay: Genotoxicity in Escherichia coli WP2 uvrA at 5000 µg/plate in presence of liver S9 fraction by Ames test; format: toxicity, organism-based
Salmonella typhimurium [13] = assay: Genotoxicity in Salmonella typhimurium TA1537 at 5000 µg/plate in absence of liver S9 fraction by Ames test; format: toxicity, organism-based; conditions: salmonella enterica subsp. enterica serovar typhimurium
Escherichia coli [14] = assay: Genotoxicity in Escherichia coli WP2 uvrA at 5000 µg/plate in absence of liver S9 fraction by Ames test; format: toxicity, organism-based
Salmonella typhimurium [15] = assay: Mutagenicity in Salmonella typhimurium TA98 at 5000 µg/plate in presence of liver S9 fraction by Ames test; format: toxicity, organism-based; conditions: salmonella enterica subsp. enterica serovar typhimurium
Salmonella typhimurium [16] = assay: Mutagenicity in Salmonella typhimurium TA98 at 5000 µg/plate in absence of liver S9 fraction by Ames test; format: toxicity, organism-based; conditions: salmonella enterica subsp. enterica serovar typhimurium
Salmonella typhimurium [17] = assay: Mutagenicity in Salmonella typhimurium TA100 at 5000 µg/plate in presence of liver S9 fraction by Ames test; format: toxicity, organism-based; conditions: salmonella enterica subsp. enterica serovar typhimurium
Salmonella typhimurium [18] = assay: Mutagenicity in Salmonella typhimurium TA100 at 5000 µg/plate in absence of liver S9 fraction by Ames test; format: toxicity, organism-based; conditions: salmonella enterica subsp. enterica serovar typhimurium
Salmonella typhimurium [19] = assay: Mutagenicity in Salmonella typhimurium TA1535 at 5000 µg/plate in absence of liver S9 fraction by Ames test; format: toxicity, organism-based; conditions: salmonella enterica subsp. enterica serovar typhimurium
Salmonella typhimurium [20] = assay: Mutagenicity in Salmonella typhimurium TA1537 at 5000 µg/plate in presence of liver S9 fraction by Ames test; format: toxicity, organism-based; conditions: salmonella enterica subsp. enterica serovar typhimurium
Escherichia coli [21] = assay: Mutagenicity in Escherichia coli WP2 uvrA at 5000 µg/plate in presence of liver S9 fraction by Ames test; format: toxicity, organism-based
Salmonella typhimurium [22] = assay: Mutagenicity in Salmonella typhimurium TA1537 at 5000 µg/plate in absence of liver S9 fraction by Ames test; format: toxicity, organism-based; conditions: salmonella enterica subsp. enterica serovar typhimurium
Escherichia coli [23] = assay: Mutagenicity in Escherichia coli WP2 uvrA at 5000 µg/plate in absence of liver S9 fraction by Ames test; format: toxicity, organism-based
[24] = Clearance in Sprague-Dawley rat at 10 mg/kg, po; format: ADME, organism-based; conditions: in vivo
Rattus norvegicus = assay: Volume of distribution at steady state in Sprague-Dawley rat at 10 mg/kg, po; format: ADME, organism-based; conditions: in vivo
[25] = Terminal half life in Sprague-Dawley rat at 10 mg/kg, po; format: ADME, organism-based; conditions: in vivo, read-out: beta t1/2 (converted)
[26] = Oral bioavailability in Sprague-Dawley rat at 10 mg/kg; format: ADME, organism-based; conditions: in vivo
[27] = AUClast in Sprague-Dawley rat at 10 mg/kg; format: ADME, organism-based; design: dose 10 mg/kg, time 0 - last; conditions: in vivo

Chain of Aurora kinase B (Q96GD4 whole entry): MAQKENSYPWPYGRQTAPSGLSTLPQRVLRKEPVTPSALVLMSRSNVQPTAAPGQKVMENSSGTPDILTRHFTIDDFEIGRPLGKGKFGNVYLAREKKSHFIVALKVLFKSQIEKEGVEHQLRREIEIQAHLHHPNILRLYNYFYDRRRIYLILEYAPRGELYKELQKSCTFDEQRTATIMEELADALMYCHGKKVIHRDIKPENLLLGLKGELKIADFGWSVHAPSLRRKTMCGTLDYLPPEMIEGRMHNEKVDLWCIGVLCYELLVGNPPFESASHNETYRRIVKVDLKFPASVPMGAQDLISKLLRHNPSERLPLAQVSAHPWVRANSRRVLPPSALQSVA

IC50 [1] | IC50 (Aurora kinase B) | half-life [2] | Papp A→B [3] | Papp B→A [4] | IC50 [5] | Fu (Plasma) | SMILES | Activity (Salmonella typhimurium [6]) | Activity (Salmonella typhimurium [7]) | Activity (Salmonella typhimurium [8]) | Activity (Salmonella typhimurium [9]) | Activity (Salmonella typhimurium [10]) | Activity (Salmonella typhimurium [11]) | Activity (Escherichia coli [12]) | Activity (Salmonella typhimurium [13]) | Activity (Escherichia coli [14]) | Activity (Salmonella typhimurium [15]) | Activity (Salmonella typhimurium [16]) | Activity (Salmonella typhimurium [17]) | Activity (Salmonella typhimurium [18]) | also measured
53.8 µM | 1.71 µM | > 1 h | 2.7 ×10⁻⁶ cm/s | 3.8 ×10⁻⁶ cm/s | > 10 µM | < 0.4% | Cc1nn(-c2ccnc(Nc3ccc4c(c3)c(Cl)c(C)n4C)n2)cc1CN1CC(O)C1 | Non-toxic | Non-toxic | Non-toxic | Non-toxic | Non-toxic | Non-toxic | Non-toxic | Non-toxic | Non-toxic | Non-toxic | Non-toxic | Non-toxic | Non-toxic | Activity (Salmonella typhimurium [19]): Non-toxic; Activity (Salmonella typhimurium [20]): Non-toxic; Activity (Escherichia coli [21]): Non-toxic; Activity (Salmonella typhimurium [22]): Non-toxic; Activity (Escherichia coli [23]): Non-toxic; CL/F [24]: 26 mL/min/kg; Vdss (Rattus norvegicus): 3.3 L/kg; half-life [25]: 3.6 h; bioavailability [26]: 28.4%; AUC(0-t) [27]: 3230 ng·h/mL
996 µM | 0.985 µM | > 1 h | 6.2 ×10⁻⁶ cm/s | 9.9 ×10⁻⁶ cm/s | > 10 µM | < 0.4% | Cc1nn(-c2ccnc(Nc3ccc4c(c3)c(C)c(C)n4C)n2)cc1CN1CC(O)C1 | Non-toxic | Non-toxic | Non-toxic | Non-toxic | Non-toxic | Non-toxic | Non-toxic | Non-toxic | Non-toxic | Non-toxic | Non-toxic | Non-toxic | Non-toxic | Activity (Salmonella typhimurium [19]): Non-toxic; Activity (Salmonella typhimurium [20]): Non-toxic; Activity (Escherichia coli [21]): Non-toxic; Activity (Salmonella typhimurium [22]): Non-toxic; Activity (Escherichia coli [23]): Non-toxic; CL/F [24]: 21 mL/min/kg; Vdss (Rattus norvegicus): 3.7 L/kg; half-life [25]: 3.4 h; bioavailability [26]: 61%; AUC(0-t) [27]: 4000 ng·h/mL
